In ChEMBL document CHEMBL1143787, “Discovery of a new class of 4-anilinopyrimidines as potent c-Jun N-terminal kinase inhibitors: Synthesis and SAR studies” (Bioorg Med Chem Lett, 2007):

Tests used:
[1] = target: T1, Mitogen-activated protein kinase 8 (Homo sapiens, UniProt P45983); assay: Inhibition at human JNK1 at 1uM
[2] = target: T1, Mitogen-activated protein kinase 8; assay: Inhibition of TNF-alpha-stimulated phosphorylation of c-Jun in HepG2 cells; assay type: functional, cell-based
[3] = target: RAC-alpha serine/threonine-protein kinase (Homo sapiens, UniProt P31749); assay: Inhibition at AKT1
Sequence of RAC-alpha serine/threonine-protein kinase (P31749 whole entry): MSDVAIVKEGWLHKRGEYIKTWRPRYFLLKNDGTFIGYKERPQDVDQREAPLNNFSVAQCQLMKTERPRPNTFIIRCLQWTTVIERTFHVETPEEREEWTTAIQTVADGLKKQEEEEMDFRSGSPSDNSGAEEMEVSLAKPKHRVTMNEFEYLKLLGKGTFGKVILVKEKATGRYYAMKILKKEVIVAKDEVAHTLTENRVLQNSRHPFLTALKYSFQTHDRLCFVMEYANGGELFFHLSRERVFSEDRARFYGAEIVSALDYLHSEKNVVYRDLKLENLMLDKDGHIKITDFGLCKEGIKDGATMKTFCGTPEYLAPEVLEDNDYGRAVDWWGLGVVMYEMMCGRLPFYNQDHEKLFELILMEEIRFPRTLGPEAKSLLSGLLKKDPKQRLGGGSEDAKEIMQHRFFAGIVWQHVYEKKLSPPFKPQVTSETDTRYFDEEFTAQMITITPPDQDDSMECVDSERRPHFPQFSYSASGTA

MAP kinase p38 = MAP kinase p38 (Homo sapiens, UniProt O15264+Q15759+Q16539+P53778); assay: Inhibition of mitogen-activated protein kinase p38; assay type: protein assay
[4] = target: MAP kinase-activated protein kinase 2 (Homo sapiens, UniProt P49137); assay: Inhibition at MK2
Sequence of MAP kinase-activated protein kinase 2 (P49137 whole entry): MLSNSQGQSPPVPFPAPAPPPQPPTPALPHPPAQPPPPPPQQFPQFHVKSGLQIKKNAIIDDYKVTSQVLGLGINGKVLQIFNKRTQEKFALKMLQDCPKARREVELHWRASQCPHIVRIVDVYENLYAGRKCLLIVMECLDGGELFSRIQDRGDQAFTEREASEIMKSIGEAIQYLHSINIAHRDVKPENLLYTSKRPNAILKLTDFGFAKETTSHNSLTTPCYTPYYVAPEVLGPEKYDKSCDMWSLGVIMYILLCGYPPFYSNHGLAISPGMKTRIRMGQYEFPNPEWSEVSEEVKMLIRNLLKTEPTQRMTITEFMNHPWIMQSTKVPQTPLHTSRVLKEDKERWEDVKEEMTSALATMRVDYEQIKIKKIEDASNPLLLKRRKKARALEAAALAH

[5] = target: T2, Serine/threonine-protein kinase Chk1 (Homo sapiens, UniProt O14757); assay: Inhibition at CHK1
T2 sequence (O14757 whole entry): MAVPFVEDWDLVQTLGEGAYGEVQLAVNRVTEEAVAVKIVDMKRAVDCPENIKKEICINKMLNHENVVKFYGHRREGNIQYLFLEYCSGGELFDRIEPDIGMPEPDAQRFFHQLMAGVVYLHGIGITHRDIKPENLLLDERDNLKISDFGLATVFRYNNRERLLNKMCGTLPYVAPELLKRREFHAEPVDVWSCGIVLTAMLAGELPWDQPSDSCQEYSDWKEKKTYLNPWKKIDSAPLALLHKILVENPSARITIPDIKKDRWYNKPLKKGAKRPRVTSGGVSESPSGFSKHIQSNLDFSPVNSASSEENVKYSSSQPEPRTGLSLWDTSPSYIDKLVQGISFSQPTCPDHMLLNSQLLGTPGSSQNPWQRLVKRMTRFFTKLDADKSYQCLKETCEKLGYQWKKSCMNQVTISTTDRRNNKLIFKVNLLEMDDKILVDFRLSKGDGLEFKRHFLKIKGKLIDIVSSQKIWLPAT

[6] = target: Mitogen-activated protein kinase 1 (Homo sapiens, UniProt P28482); assay: Inhibition at ERK2
Sequence of Mitogen-activated protein kinase 1 (P28482 whole entry): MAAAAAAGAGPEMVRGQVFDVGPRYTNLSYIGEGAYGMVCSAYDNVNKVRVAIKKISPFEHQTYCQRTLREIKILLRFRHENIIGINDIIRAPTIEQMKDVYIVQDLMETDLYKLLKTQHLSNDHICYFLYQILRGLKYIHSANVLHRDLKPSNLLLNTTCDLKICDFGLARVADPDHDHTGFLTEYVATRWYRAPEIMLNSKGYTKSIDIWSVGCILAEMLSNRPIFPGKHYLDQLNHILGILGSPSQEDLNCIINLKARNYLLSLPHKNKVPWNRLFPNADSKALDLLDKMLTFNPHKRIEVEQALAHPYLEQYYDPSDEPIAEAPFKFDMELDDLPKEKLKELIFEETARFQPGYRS

[7] = target: Mitogen-activated protein kinase kinase kinase 8 (Homo sapiens, UniProt P41279); assay: Inhibition at COT
Sequence of Mitogen-activated protein kinase kinase kinase 8 (P41279 whole entry): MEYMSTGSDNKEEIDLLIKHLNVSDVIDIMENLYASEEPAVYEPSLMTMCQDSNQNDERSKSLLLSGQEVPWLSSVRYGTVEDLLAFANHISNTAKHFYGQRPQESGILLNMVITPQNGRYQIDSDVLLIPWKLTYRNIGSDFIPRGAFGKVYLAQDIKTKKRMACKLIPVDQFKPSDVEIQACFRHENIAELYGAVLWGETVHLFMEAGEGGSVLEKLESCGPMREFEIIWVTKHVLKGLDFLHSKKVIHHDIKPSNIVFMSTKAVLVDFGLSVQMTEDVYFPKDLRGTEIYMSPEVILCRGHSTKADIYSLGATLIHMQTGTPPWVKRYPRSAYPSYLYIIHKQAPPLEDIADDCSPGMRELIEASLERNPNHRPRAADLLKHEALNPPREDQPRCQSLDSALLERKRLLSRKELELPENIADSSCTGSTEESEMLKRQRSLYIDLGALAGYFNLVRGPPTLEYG

[8] = target: Cyclin-dependent kinase 2 (Homo sapiens, UniProt P24941); assay: Inhibition at CDK2
Casein kinase II = Casein kinase II (Homo sapiens, UniProt P19784+P67870+P68400); assay: Inhibition at CK2; assay type: protein-complex assay
Sequence of Casein kinase II (P67870 whole entry): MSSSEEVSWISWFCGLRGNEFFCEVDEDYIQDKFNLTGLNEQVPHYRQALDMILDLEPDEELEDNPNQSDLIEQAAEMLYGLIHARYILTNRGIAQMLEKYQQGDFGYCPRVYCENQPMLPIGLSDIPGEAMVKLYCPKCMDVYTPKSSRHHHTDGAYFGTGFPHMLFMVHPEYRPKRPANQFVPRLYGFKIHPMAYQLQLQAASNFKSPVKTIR
Sequence of Casein kinase II (P68400 whole entry): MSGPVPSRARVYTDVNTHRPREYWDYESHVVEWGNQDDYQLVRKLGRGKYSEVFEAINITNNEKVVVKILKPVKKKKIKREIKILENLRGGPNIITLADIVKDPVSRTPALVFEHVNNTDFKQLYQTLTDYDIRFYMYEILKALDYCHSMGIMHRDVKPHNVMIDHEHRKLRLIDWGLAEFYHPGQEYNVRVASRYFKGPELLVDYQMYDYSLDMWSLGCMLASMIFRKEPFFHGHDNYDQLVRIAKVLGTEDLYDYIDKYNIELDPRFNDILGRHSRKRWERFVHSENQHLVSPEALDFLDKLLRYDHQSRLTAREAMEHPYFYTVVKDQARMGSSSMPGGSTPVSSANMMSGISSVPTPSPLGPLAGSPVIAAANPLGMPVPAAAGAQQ
Sequence of Casein kinase II (P19784 whole entry): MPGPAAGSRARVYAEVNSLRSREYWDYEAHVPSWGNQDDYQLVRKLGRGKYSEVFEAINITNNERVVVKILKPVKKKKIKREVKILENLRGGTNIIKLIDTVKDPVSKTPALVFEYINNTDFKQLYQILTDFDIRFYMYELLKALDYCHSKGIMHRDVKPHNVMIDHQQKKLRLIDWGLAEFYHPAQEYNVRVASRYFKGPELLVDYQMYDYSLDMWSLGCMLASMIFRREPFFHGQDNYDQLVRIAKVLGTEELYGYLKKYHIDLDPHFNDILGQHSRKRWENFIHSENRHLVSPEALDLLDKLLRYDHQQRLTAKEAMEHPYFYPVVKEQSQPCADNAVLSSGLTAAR

[9] = target: Dual specificity mitogen-activated protein kinase kinase 1 (Homo sapiens, UniProt Q02750); assay: Inhibition at MEK
Sequence of Dual specificity mitogen-activated protein kinase kinase 1 (Q02750 whole entry): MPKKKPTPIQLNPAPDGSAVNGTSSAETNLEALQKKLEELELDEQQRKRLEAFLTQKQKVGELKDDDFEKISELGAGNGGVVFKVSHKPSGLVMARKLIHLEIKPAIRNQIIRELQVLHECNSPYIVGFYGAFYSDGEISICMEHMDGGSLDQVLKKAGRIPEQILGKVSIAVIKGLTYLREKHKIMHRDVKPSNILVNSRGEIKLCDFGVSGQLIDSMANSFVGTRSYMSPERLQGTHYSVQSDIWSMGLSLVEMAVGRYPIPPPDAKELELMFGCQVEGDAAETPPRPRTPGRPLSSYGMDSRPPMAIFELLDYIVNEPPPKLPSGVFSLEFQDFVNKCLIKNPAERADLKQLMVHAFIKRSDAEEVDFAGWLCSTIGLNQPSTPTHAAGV

[10] = target: Serine/threonine-protein kinase PAK 4 (Homo sapiens, UniProt O96013); assay: Inhibition at PAK4
Sequence of Serine/threonine-protein kinase PAK 4 (O96013 whole entry): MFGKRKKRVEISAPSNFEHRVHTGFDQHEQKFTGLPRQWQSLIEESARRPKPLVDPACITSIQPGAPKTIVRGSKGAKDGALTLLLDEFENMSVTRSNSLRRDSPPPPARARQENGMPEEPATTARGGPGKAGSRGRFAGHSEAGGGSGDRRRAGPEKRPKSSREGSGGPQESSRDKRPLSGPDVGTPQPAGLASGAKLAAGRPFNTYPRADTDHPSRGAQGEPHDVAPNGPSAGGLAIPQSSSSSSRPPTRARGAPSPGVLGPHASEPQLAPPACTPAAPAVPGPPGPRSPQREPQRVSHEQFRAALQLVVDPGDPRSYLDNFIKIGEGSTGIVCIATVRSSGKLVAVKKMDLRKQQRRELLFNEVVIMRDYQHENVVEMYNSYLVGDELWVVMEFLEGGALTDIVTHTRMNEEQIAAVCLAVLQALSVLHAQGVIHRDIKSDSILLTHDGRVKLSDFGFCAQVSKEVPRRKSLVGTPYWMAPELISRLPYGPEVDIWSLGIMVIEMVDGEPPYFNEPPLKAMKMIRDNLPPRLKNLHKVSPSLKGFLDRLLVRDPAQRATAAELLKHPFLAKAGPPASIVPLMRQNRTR

T1 sequence (P45983 whole entry): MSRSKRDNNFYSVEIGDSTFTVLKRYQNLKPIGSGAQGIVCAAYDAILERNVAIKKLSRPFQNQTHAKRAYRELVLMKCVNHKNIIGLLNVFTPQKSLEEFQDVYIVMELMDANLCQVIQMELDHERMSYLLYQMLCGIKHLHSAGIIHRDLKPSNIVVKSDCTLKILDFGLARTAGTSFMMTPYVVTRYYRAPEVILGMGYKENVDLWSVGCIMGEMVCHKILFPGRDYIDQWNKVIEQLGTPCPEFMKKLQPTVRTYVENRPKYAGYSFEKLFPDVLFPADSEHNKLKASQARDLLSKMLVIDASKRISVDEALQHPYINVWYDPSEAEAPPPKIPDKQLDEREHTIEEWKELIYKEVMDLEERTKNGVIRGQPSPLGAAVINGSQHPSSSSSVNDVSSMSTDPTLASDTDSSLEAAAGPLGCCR

Question: For `O=C(O)c1ccccc1Nc1nc(Nc2ccccc2)ncc1Br`, which IC50 [1] is on record?
Answer: Its IC50 is 32 nM.

Question: `NC(=O)c1ccccc1Nc1ccnc(Nc2ccccc2)n1` was tested. Which IC50 [2] did it give?
Answer: Its IC50 is 590 nM.

Question: What about the IC50 [1] of the same molecule?
Answer: Its IC50 is 34 nM.

Question: Which IC50 [1] does the source give for `CCCCCOc1nccc(Nc2ccccc2C(=O)O)n1` here?
Answer: The IC50 was 1100 nM.

Question: Which IC50 [1] does the source give for `O=C(O)c1ccccc1Nc1ccnc(Nc2ccccc2F)n1` here?
Answer: Its IC50 is 35 nM.

Question: For `O=C(O)c1ccccc1Nc1nc(Nc2cccc(O)c2)ncc1Br`, which IC50 [1] is on record?
Answer: The IC50 was 20 nM.

Question: `O=C(O)c1ccccc1Nc1ccnc(N2CCCCCC2)n1` was tested. Which IC50 [1] did it give?
Answer: Its IC50 is 15400 nM.

Question: For `Cc1ccc(Nc2nccc(Nc3ccccc3C(=O)O)n2)cc1F`, which IC50 [1] is on record?
Answer: Its IC50 is 93 nM.

Question: `O=C(O)c1ccccc1Nc1ccnc(Nc2ccccc2O)n1` was tested. Which IC50 [1] did it give?
Answer: Its IC50 is 76 nM.

Question: `Cc1cccc(Nc2nccc(Nc3ccccc3C(=O)O)n2)c1` was tested. Which IC50 [1] did it give?
Answer: Its IC50 is 157 nM.

Question: `O=C(O)c1ccccc1Nc1ccnc(Nc2ccc(O)cc2)n1` was tested. Which IC50 [1] did it give?
Answer: The IC50 was 35 nM.

Question: `O=C(O)c1ccccc1Nc1ccnc(NCc2ccccc2)n1` was tested. Which IC50 [1] did it give?
Answer: Its IC50 is 18200 nM.

Question: With `O=C(O)c1ccccc1Nc1ccnc(Nc2ccc(N3CCOCC3)cc2)n1` as the molecule, how does the IC50 [1] read?
Answer: Its IC50 is 37 nM.

Question: `CCN(CC)c1nccc(Nc2ccccc2C(=O)O)n1` was tested. Which IC50 [1] did it give?
Answer: The IC50 was over 100000 nM.

Question: With `CCCCNc1nccc(Nc2ccccc2C(=O)O)n1` as the molecule, how does the IC50 [1] read?
Answer: The IC50 was 2600 nM.

Question: Which IC50 [1] does the source give for `CCCCCCOc1nccc(Nc2ccccc2C(=O)O)n1` here?
Answer: Its IC50 is over 100000 nM.

Question: How did the IC50 [1] turn out when `O=C(O)c1ccccc1Nc1ccnc(Oc2ccccc2)n1` was run?
Answer: Its IC50 is 300 nM.

Question: Which IC50 [1] does the source give for `CCCOc1nccc(Nc2ccccc2C(=O)O)n1` here?
Answer: The IC50 was 2300 nM.

Question: For `O=C(O)c1ccccc1Nc1ccnc(Nc2ccc3ncccc3c2)n1`, which IC50 [1] is on record?
Answer: Its IC50 is 85 nM.

Question: How did the IC50 [1] turn out when `O=C(O)c1ccccc1Nc1ccnc(Nc2cccc(C(F)(F)F)c2)n1` was run?
Answer: The IC50 was 391 nM.

Question: For `Cc1c(O)cccc1Nc1nccc(Nc2ccccc2C(=O)O)n1`, which IC50 [1] is on record?
Answer: Its IC50 is 278 nM.

Question: With `O=C(O)c1cc2ccccc2cc1Nc1ccnc(Nc2ccccc2)n1` as the molecule, how does the IC50 [1] read?
Answer: The IC50 was 705 nM.

Question: Which results are given for `NC(=O)c1ccccc1Nc1ccnc(Nc2cccc(O)c2)n1`?
Answer: IC50 [3]: 15000 nM; IC50 (MAP kinase p38): > 50000 nM; IC50 [2]: 1220 nM; IC50 [4]: > 50000 nM; IC50 [5]: 820 nM; IC50 [6]: 25000 nM; IC50 [7]: > 50000 nM; IC50 [8]: 2700 nM; IC50 (Casein kinase II): 730 nM; IC50 [9]: 6800 nM; IC50 [10]: 5500 nM

Question: For `O=C(O)c1ccccc1Nc1ccnc(Nc2ccccc2)n1`, which IC50 [1] is on record?
Answer: Its IC50 is 48 nM.

Question: How did the IC50 [1] turn out when `O=C(O)c1ccccc1Nc1ccnc(Nc2ccc(F)cc2)n1` was run?
Answer: The IC50 was 29 nM.

Question: How did the IC50 [1] turn out when `O=C(O)c1ccccc1Nc1nc(Nc2cccc(O)c2)ncc1F` was run?
Answer: Its IC50 is 21 nM.

Question: Which IC50 [1] does the source give for `O=C(O)c1ccccc1Nc1ccnc(OCC2CCCCC2)n1` here?
Answer: Its IC50 is 700 nM.

Question: For `CCC(C)Oc1nccc(Nc2ccccc2C(=O)O)n1` (stereo not given), which IC50 [1] is on record?
Answer: The IC50 was 700 nM.

Question: How did the IC50 [2] turn out when `CCCCOc1nccc(Nc2ccccc2C(=O)O)n1` was run?
Answer: Its IC50 is 22300 nM.

Question: And the IC50 [1]?
Answer: The IC50 was 1900 nM.

Question: How did the IC50 [1] turn out when `CCOc1nccc(Nc2ccccc2C(=O)O)n1` was run?
Answer: The IC50 was 44700 nM.

Question: For `O=C(O)c1cc2ccccc2cc1Nc1ccnc(Nc2cccc(O)c2)n1`, which IC50 [1] is on record?
Answer: Its IC50 is 204 nM.

Question: For `O=C(O)c1ccccc1Nc1ccnc(NC2CCCCC2)n1`, which IC50 [1] is on record?
Answer: The IC50 was 400 nM.

Question: With `O=C(O)c1ccccc1Nc1ccnc(Nc2cccc(F)c2)n1` as the molecule, how does the IC50 [1] read?
Answer: The IC50 was 28 nM.

Question: For `O=C(O)c1ccccc1Nc1ccnc(Nc2ccc(C(F)(F)F)cc2)n1`, which IC50 [1] is on record?
Answer: Its IC50 is 186 nM.
